Assay results taken from ChEMBL document CHEMBL4742385 (2019).

How the values were obtained:
[1] = target: Cyclin-C/Cyclin-dependent kinase 19 (Homo sapiens) (UniProt Q9BWU1+P24863); assay: Inhibition of humanGST-tagged CDK19/Cyc C expressed in Sf21 cells at 1 uM measured after 1 hr by fluorescence plate reader relative to control
[2] = tested on: SW480; assay: Antitumor activity against human SW480 cells xenografted in BALB/c nude mouse assessed as inhibition of tumor growth at 50 mg/kg, po administered once daily measured after 14 days relative to control; type: functional; conditions: time 14 day
[3] = target: CDK8/Cyclin C (Homo sapiens) (UniProt P49336+P24863); assay: Inhibition of human CDK8/Cyc C expressed in Sf21 cells at 1 uM measured after 1 hr by fluorescence plate reader relative to control
[4] = tested on: RPMI-8226; assay: Antiproliferative activity against human RPMI-8226 assessed as inhibition of cell growth at 1 uM after 8 days measured after Celltiter-Glo assay relative to control; type: functional; conditions: Homo sapiens, RPMI-8226, 192 h, time 8 day

Structure (SMILES) | inhibition [1] [%] | T/C [2] [%] | inhibition [3] [%] | inhibition at 1 µM [4] [%]
O=C(/C=C/c1cncc(F)c1-c1cnn(C2CC2)c1)Nc1ccc(CN2CCOCC2)cc1F | 96 | 36 | 101 | 64
O=C(/C=C/c1cncc(F)c1-c1cnn(C2CC2)c1)Nc1ccc2c(c1)CN(CC(F)(F)F)C2 | 100 | 29 | 104 | 58
Cn1cc(-c2ccncc2/C=C/C(=O)Nc2ccc3c(c2)CN(CC(F)(F)F)C3)cn1 | 102 | 31 | 98 | 64
Cn1cc(-c2ccncc2/C=C/C(=O)Nc2ccc3c(c2)CN(CC(F)(F)F)CC3)cn1 | 100 | 43 | 102 | 59
O=C(/C=C/c1cnccc1-c1cnn(C2CC2)c1)Nc1ccc(CN2CCOCC2)cc1F | 99 | 36 | 99 | 53
O=C(/C=C/c1cnccc1-c1cnn(C2CC2)c1)Nc1ccc(CN2CC(F)(F)C2)cc1 | – | 51 | – | 58
O=C(/C=C/c1cnccc1-c1cnn(C2CC2)c1)Nc1ccc(CN2CCOCC2)cc1 | 102 | 37 | 92 | 53
CC(C)(F)Cc1ccc(NC(=O)/C=C/c2cnccc2-c2cnn(C3CC3)c2)cc1 | 95 | – | 102 | 61
Cn1cc(-c2ccncc2/C=C/C(=O)Nc2ccc(CN3CC4CC3CO4)cc2)cn1 (centres undefined) | 96 | – | 100 | 58
CCN1CCc2cc(NC(=O)/C=C/c3cnccc3-c3cnn(C)c3)ccc2C1 | 95 | – | 96 | 58
O=C(/C=C/c1cnccc1-c1cnn(C2CC2)c1)Nc1ccc(COCC(F)(F)F)cc1F | 96 | – | 101 | 53
Cn1cc(-c2c(F)cncc2/C=C/C(=O)Nc2ccc(CN3CC(F)(F)C3)cc2)cn1 | 102 | 36 | 103 | 65
CN(C)CCOc1ccc(NC(=O)/C=C/c2cnccc2-c2cnn(C)c2)cc1 | 93 | – | 99 | 60
CC(c1ccc(NC(=O)/C=C/c2cnccc2-c2cnn(C)c2)cc1)N1CCOCC1 (centres undefined) | 98 | – | 96 | 57
CCn1cc(-c2ccncc2/C=C/C(=O)Nc2ccc(CN3CCOCC3)cc2)cn1 | 100 | – | 96 | 63
Cn1cc(-c2ccncc2/C=C/C(=O)Nc2ccc(CN3CCOC(C)(C)C3)cc2)cn1 | 101 | – | 97 | 61
